Where two headings read alike, the source gives them in different places.
Key:
Assay type in all cases: cell-based
Settings in all cases: Homo sapiens, 5 hours treatment
Aβ-42 = Aβ-42 MSD 3-plex ELISA, conditioned media of 2B7 cells
Procedure: (§1) Assays were conducted to determine the ability of a Compound of Formula I to modulate […], and Aβ-38.
(§2) Plates with capture antibodies were blocked for 1-2 hours at room temperature with 150 μL of the manufactures blocking reagent.
(§3) Cultured 2B7 cells in 96 well plate with 250 μL of media per well until confluent;
(§4) Prepared serial dilutions of compounds in DMSO at 100× the final desired concentration;
(§5) Washed wells with 2B7 cells 1× with 250 μL of media;
(§6) Diluted DMSO stocks 1:100 into media: • Added 250 μL of media containing compounds (1% DMSO) to wells with 2B7 cells for 5 hours at 37° C.
(§7) ELISA Sample Prep: • Diluted conditioned media: 1 part media with 1% DMSO and 1 part blocking buffer; • 150 μL of the 250 μL of conditioned media were used.
(§8) Prepared per manufacturer's protocol (see above). • Seven point standard curve samples were prepared that contained Aβ-42, Aβ-40, and Aβ-38. The highest concentration of Aβ-42 and Aβ-38 was 3,000 pg/mL and the highest concentration of Aβ-40 was 10,000 pg/mL. Subsequent serial dilutions were 1:3 and the final composition of each sample was 1 part blocking buffer and 1 part cell medium containing 1% DMSO.
(§9) Overnight Sample Incubation: • Blocked plates are washed 5× with MSD wash buffer with a plate washer; • […] and blocker G reagent in MSD blocking solution was added; • 25 μL of samples (1 part conditioned media containing 1% DMSO and 1 part MSD blocking buffer) were then added; • Plates were incubated overnight at 4 degrees C. or 2 hours at room temperature.
(§10) Final Wash and Readout: • Washed wells 5× with MSD wash buffer; • Added 150 μL 2×MSD read buffer; • Read with MSD imager.
(§11) Aβ peptide levels for each peptide were calculated from the standard curve using the MSD software provided with the MSD 2400 Imager. Percent vehicle values for each compound dosage were then calculated and fit to a 4 parameter curve generating IC50 values.
(§12) Conditioned media from 2B7 cells (Mayo) was collected after 5 hours of treatment and diluted with 1 volume of Meso Scale Discovery (MSD, Gaithersburg Md.) blocking buffer (1% BSA in MSD wash buffer). For total Aβ measurements, standard-bind, multi-array single spot 96 well MSD ELISA plates were coated with unlabeled 4G8 capture antibody (Covance, Princeton, N.J.) overnight at 4° C. and then blocked with 5% BSA in MSD wash buffer for 1 hour at room temperature with orbital shaking Diluted 2B7 conditioned media were added to the blocked in-house total Aβ MSD plates with SULFO-TAG 6E10 antibody (MSD). For Aβ38, 40 and 42 measurements, diluted 2B7 conditioned media were added to blocked human (6E10) Aβ 3-Plex plates (MSD). Total Aβ and Aβ 3-Plex plates were incubated for 2 hours at room temperature with orbital shaking followed by washing and reading according to the manufacturer's instructions (SECTOR® Imager 2400, MSD). Aβ concentrations were converted to percent vehicle values and used to construct dose response curves which were fitted to […] using GraphPad Prism version 5.00 for Windows, GraphPad Software, San Diego Calif. USA.

Aβ-38 = Aβ-38 MSD 3-plex ELISA, conditioned media of 2B7 cells
Procedure: as §1, §2, §3, §4, §5, §6, §7, §8, §9, §10, §11, §12

Aβ-40 = Aβ-40 MSD 3-plex ELISA, conditioned media of 2B7 cells
Procedure: as §1, §2, §3, §4, §5, §6, §7, §8, §9, §10, §11, §12

[1] = inflection of dose response curve, read-out: Aβ 42 DR IC50 Inflection
[2] = inflection of dose response curve, read-out: Aβ 38 DR IC50 Inflection
[3] = inflection of dose response curve, read-out: Aβ 40 DR IC50 Inflection

SMILES | IC50 (Aβ-42; [1]) [nM] | IC50 (Aβ-42; read-out: Aβ 42 IC50) [nM] | IC50 (Aβ-38; [2]) [nM] | IC50 (Aβ-38; read-out: Aβ 38 IC50) [nM] | IC50 (Aβ-40; [3]) [nM] | IC50 (Aβ-40; read-out: Aβ 40 IC50) [nM]
CCO[C@@H]([C@H]1C[C@@H](C)[C@H]2[C@H](O1)[C@H](O)[C@@]1(C)[C@@H]3CC[C@H]4C(C)(C)[C@@H](O[C@H]5CN([C@H]6CCN(CC)C6=O)CCO5)CC[C@@]45C[C@@]35CC[C@]21C)C(C)(C)O [Compound I-1] | 501 to 1000 | 501 to 1000 | 501 to 1000 | 501 to 1000 | > 5000 | > 5000
CCO[C@@H]([C@H]1C[C@@H](C)[C@H]2[C@H](O1)[C@H](O)[C@@]1(C)[C@@H]3CC[C@H]4C(C)(C)[C@@H](O[C@H]5CN(C6CN(CCF)C6)CCO5)CC[C@@]45C[C@@]35CC[C@]21C)C(C)(C)O [Compound I-4] | 100 to 500 | 100 to 500 | – | 501 to 1000 | > 5000 | 1000 to 5000
CCO[C@@H]([C@H]1C[C@@H](C)[C@H]2[C@H](O1)[C@H](O)[C@@]1(C)[C@@H]3CC[C@H]4C(C)(C)[C@@H](O[C@H]5CN(C6CN(CC(F)F)C6)CCO5)CC[C@@]45C[C@@]35CC[C@]21C)C(C)(C)O [Compound I-9] | 100 to 500 | 100 to 500 | – | 501 to 1000 | – | 1000 to 5000
CCO[C@@H]([C@H]1C[C@@H](C)[C@H]2[C@H](O1)[C@H](O)[C@@]1(C)[C@@H]3CC[C@H]4C(C)(C)[C@@H](O[C@H]5CN(C(C)(C)C6CN(C)C6)CCO5)CC[C@@]45C[C@@]35CC[C@]21C)C(C)(C)O [Compound I-12] | 100 to 500 | 100 to 500 | – | 100 to 500 | – | 1000 to 5000
CCO[C@@H]([C@H]1C[C@@H](C)[C@H]2[C@H](O1)[C@H](O)[C@@]1(C)[C@@H]3CC[C@H]4C(C)(C)[C@@H](O[C@H]5CN(C6CN(C(C)(C)C)C6)CCO5)CC[C@@]45C[C@@]35CC[C@]21C)C(C)(C)O [Compound I-14] | < 100 | < 100 | – | 100 to 500 | – | 1000 to 5000
CCO[C@@H]([C@H]1C[C@@H](C)[C@H]2[C@H](O1)[C@H](O)[C@@]1(C)[C@@H]3CC[C@H]4C(C)(C)[C@@H](O[C@H]5CN(C(C)(C)C6CN(C7COC7)C6)CCO5)CC[C@@]45C[C@@]35CC[C@]21C)C(C)(C)O [Compound I-15] | 100 to 500 | 100 to 500 | – | 501 to 1000 | > 5000 | 1000 to 5000
CCO[C@@H]([C@H]1C[C@@H](C)[C@H]2[C@H](O1)[C@H](O)[C@@]1(C)[C@@H]3CC[C@H]4C(C)(C)[C@@H](O[C@H]5CN(C6CN(CC(C)(C)C)C6)CCO5)CC[C@@]45C[C@@]35CC[C@]21C)C(C)(C)O [Compound I-16] | 100 to 500 | 100 to 500 | – | 501 to 1000 | – | 1000 to 5000
CCO[C@@H]([C@H]1C[C@@H](C)[C@H]2[C@H](O1)[C@H](O)[C@@]1(C)[C@@H]3CC[C@H]4C(C)(C)[C@@H](O[C@H]5CN(CC6CN(CC(C)(C)C)C6)CCO5)CC[C@@]45C[C@@]35CC[C@]21C)C(C)(C)O [Compound I-18] | 100 to 500 | 100 to 500 | – | 501 to 1000 | 1000 to 5000 | 1000 to 5000
CCO[C@@H]([C@H]1C[C@@H](C)[C@H]2[C@H](O1)[C@H](O)[C@@]1(C)[C@@H]3CC[C@H]4C(C)(C)[C@@H](O[C@H]5CN(C6CCN(C7CCC7)CC6)CCO5)CC[C@@]45C[C@@]35CC[C@]21C)C(C)(C)O [Compound I-21] | 100 to 500 | 100 to 500 | 501 to 1000 | 501 to 1000 | 1000 to 5000 | 1000 to 5000
CCO[C@@H]([C@H]1C[C@@H](C)[C@H]2[C@H](O1)[C@H](O)[C@@]1(C)[C@@H]3CC[C@H]4C(C)(C)[C@@H](O[C@H]5CN(CC6CN(C7CCC7)C6)CCO5)CC[C@@]45C[C@@]35CC[C@]21C)C(C)(C)O [Compound I-23] | 100 to 500 | 100 to 500 | – | 100 to 500 | > 5000 | 1000 to 5000
CCO[C@@H]([C@H]1C[C@@H](C)[C@H]2[C@H](O1)[C@H](O)[C@@]1(C)[C@@H]3CC[C@H]4C(C)(C)[C@@H](O[C@H]5CN(CC6CN(CC7(C)COC7)C6)CCO5)CC[C@@]45C[C@@]35CC[C@]21C)C(C)(C)O [Compound I-26] | 100 to 500 | 100 to 500 | 1000 to 5000 | 501 to 1000 | 1000 to 5000 | 1000 to 5000
CCO[C@@H]([C@H]1C[C@@H](C)[C@H]2[C@H](O1)[C@H](O)[C@@]1(C)[C@@H]3CC[C@H]4C(C)(C)[C@@H](O[C@H]5CN(C6(C)CN(C7CCC7)C6)CCO5)CC[C@@]45C[C@@]35CC[C@]21C)C(C)(C)O [Compound I-27] | < 100 | 100 to 500 | – | 100 to 500 | – | 1000 to 5000
CCO[C@@H]([C@H]1C[C@@H](C)[C@H]2[C@H](O1)[C@H](O)[C@@]1(C)[C@@H]3CC[C@H]4C(C)(C)[C@@H](O[C@H]5CN(C6CCN(C)CC6)CCO5)CC[C@@]45C[C@@]35CC[C@]21C)C(C)(C)O [Compound I-29] | < 100 | < 100 | – | 100 to 500 | – | 1000 to 5000
CCO[C@@H]([C@H]1C[C@@H](C)[C@H]2[C@H](O1)[C@H](O)[C@@]1(C)[C@@H]3CC[C@H]4C(C)(C)[C@@H](O[C@H]5CN(C6(C)CN(C)C6)CCO5)CC[C@@]45C[C@@]35CC[C@]21C)C(C)(C)O [Compound I-31] | < 100 | < 100 | – | 100 to 500 | – | 1000 to 5000
CCO[C@@H]([C@H]1C[C@@H](C)[C@H]2[C@H](O1)[C@H](O)[C@@]1(C)[C@@H]3CC[C@H]4C(C)(C)[C@@H](O[C@H]5CN(C6CN(CC7(C)COC7)C6)CCO5)CC[C@@]45C[C@@]35CC[C@]21C)C(C)(C)O [Compound I-32] | 100 to 500 | 100 to 500 | – | 100 to 500 | – | 1000 to 5000
CCO[C@@H]([C@H]1C[C@@H](C)[C@H]2[C@H](O1)[C@H](O)[C@@]1(C)[C@@H]3CC[C@H]4C(C)(C)[C@@H](O[C@H]5CN(C6(C)CN(CC(C)(C)C)C6)CCO5)CC[C@@]45C[C@@]35CC[C@]21C)C(C)(C)O [Compound I-33] | < 100 | 100 to 500 | – | 100 to 500 | – | –
CCO[C@@H]([C@H]1C[C@@H](C)[C@H]2[C@H](O1)[C@H](O)[C@@]1(C)[C@@H]3CC[C@H]4C(C)(C)[C@@H](O[C@H]5CN(C6(C)CN(CC7(C)COC7)C6)CCO5)CC[C@@]45C[C@@]35CC[C@]21C)C(C)(C)O [Compound I-34] | 100 to 500 | 100 to 500 | – | 501 to 1000 | – | 1000 to 5000
CCO[C@@H]([C@H]1C[C@@H](C)[C@H]2[C@H](O1)[C@H](O)[C@@]1(C)[C@@H]3CC[C@H]4C(C)(C)[C@@H](O[C@H]5CN(C6(C)CN(C7COC7)C6)CCO5)CC[C@@]45C[C@@]35CC[C@]21C)C(C)(C)O [Compound I-36] | 100 to 500 | 100 to 500 | – | 501 to 1000 | – | –
CCO[C@@H]([C@H]1C[C@@H](C)[C@H]2[C@H](O1)[C@H](O)[C@@]1(C)[C@@H]3CC[C@H]4C(C)(C)[C@@H](O[C@H]5CN(C6(C)CN(CCOC)C6)CCO5)CC[C@@]45C[C@@]35CC[C@]21C)C(C)(C)O [Compound I-37] | < 100 | 100 to 500 | – | 100 to 500 | – | 1000 to 5000
CCO[C@@H]([C@H]1C[C@@H](C)[C@H]2[C@H](O1)[C@H](O)[C@@]1(C)[C@@H]3CC[C@H]4C(C)(C)[C@@H](O[C@H]5CN(CCN6CC(F)(F)C6)CCO5)CC[C@@]45C[C@@]35CC[C@]21C)C(C)(C)O [Compound I-64] | 100 to 500 | 100 to 500 | – | 501 to 1000 | – | –

— patent US20130060020A1, “Compounds useful for treating neurodegenerative disorders” (Satori Pharmaceuticals, Inc., priority 2011, published 2013)
